Usually IC50 stands for the concentration that inhibits the measured activity by half. A low value points to greater potency in that assay. Broadly, the AUC(0-t) is the area under the concentration-time curve up to a stated or last time point. The bioavailability is the share of a dose that reaches the circulation, judged against a reference dose that is usually intravenous. Higher therefore signals much systemic uptake. A word on the Cmax: it is the peak of the concentration-time curve.

Data set [1] addresses T1, IRAK4 kinase (Homo sapiens, UniProt Q9NWZ3).
T1 sequence (Q9NWZ3 1-460): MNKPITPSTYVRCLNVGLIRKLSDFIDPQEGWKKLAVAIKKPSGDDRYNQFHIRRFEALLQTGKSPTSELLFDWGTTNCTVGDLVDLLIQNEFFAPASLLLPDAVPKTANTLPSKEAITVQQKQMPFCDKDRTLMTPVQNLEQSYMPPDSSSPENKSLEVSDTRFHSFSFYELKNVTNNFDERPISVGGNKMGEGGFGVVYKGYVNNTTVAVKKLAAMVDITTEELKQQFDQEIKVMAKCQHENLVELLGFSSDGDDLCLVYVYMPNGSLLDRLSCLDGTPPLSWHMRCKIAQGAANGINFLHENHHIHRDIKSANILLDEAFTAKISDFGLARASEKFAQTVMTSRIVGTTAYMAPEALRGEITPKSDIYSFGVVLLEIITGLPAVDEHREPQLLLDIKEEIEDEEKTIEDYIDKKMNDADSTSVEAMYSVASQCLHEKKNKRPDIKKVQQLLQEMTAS
Put plainly: IRAK4 kinase activity test (KinEASE-STK HTRF kit). The class given is biochemical. The settings on record: IRAK4 kinase inhibition, 7 μM ATP, 37° C. 120 min. The procedure:
KinEASE-STK Si serine/threonine kinase kit (Cisbio) was used to detect the inhibitory effect of the compound on IRAK4 kinase activity. The specific method was: the compound was dissolved in dimethyl sulfoxide, and then it was diluted with the buffer solution of the kit by equal gradient to make the final concentration range of the tested compound in the reaction system 10000 nM-0.038 nM, then 2.5 nM kinase, 1 μM biotinylated polypeptide substrate and 7 μM adenosine triphosphate (ATP) were added in sequence and incubated at 37° C. for 120 min. Subsequently, anti-phosphorylated serine/threonine antibody coupled with europium element compound and modified XL665 streptavidin were added to the reaction system to terminate the reaction. After incubating at room temperature for 1 h, the fluorescence intensity of each well at the emission wavelength of 620 nm and 665 nm and the excitation wavelength of 337 nm was determined in HTRF mode on the microplate reader EnVision (PerkinElmer), the ratio value was calculated using the formula Ratio=(665 nm/620 nm)×10^4. By comparing with the fluorescence intensity ratio of the control group, the inhibition rate of the compound at each concentration was calculated, and then the IC50 value of the compound was obtained by fitting the nonlinear curve with the logarithmic concentration-inhibition rate by GraphPad Prism 7.

Data set [2] concerns the target T2, IKZF1 (Homo sapiens, UniProt Q13422+Q96SW2).
T2 construct: endogenous in cells; host or cells: L363 cells
Put plainly: Degradation of IKZF1 in L363 cells by Western blot. The following applies: compound 1000 nM, 16 hours. It is filed as cell-based. The protocol: (§1) The 24-well cell culture plate was inoculated with 0.95 mL L363 cells (Nanjing Co-bioer) per well with a cell density of 6×10^5 cells/well. The cell plate was placed in a 5% carbon dioxide incubator and cultured at 37° C. for 8 hours, then 50 μL of compound solution was added. The final concentration of the compound was 1000 nM. After continuing to culture for 16 hours, the cells were collected into a 1.5 mL centrifuge tube and centrifuged at 3000 rpm and 4° C. for 5 minutes. Cell precipitation was washed twice with 1×DPBS, resuspended cells were lysed with 100 μL lysate (cell lysate was Western and IP cell lysate (Beyotime), supplemented with 1 mM mixture of phenylmethylsulfonyl fluoride and protease inhibitor (Beyotime)), left on ice for 30 minutes, then centrifuged at 14000 g at 4° C. for 10 minutes, and the supernatant was taken to detect IKZF1 and IKZF3 protein level by Western blot.
(§2) The total protein concentration in the supernatant of cell lysis was determined by BCA protein quantitative kit (Tiangen). According to the concentration of total protein detected by BCA, the supernatant was adjusted to […] with PBS and 5×SDS-PAGE protein loading buffer (Beyotime), bathed in water at 100° C. for 10 minutes, then placed in ice bath for 5 minutes, centrifuged at 14000 g and 4° C. for 5 minutes, and then collected as WB loading sample. Prefabricated glue (KeyGEN) was used for protein electrophoresis with a loading amount of 10 μL (total protein 2 μg). After Tris-MOPS-SDS electrophoresis solution (Adamas), 120V constant pressure electrophoresis was performed. After electrophoresis, the protein on the adhesive strip was transferred to PVDF membrane with a constant current of […] for 50 minutes. After the membrane was transferred, the membrane was incubated in 5% bovine serum albumin solution for 2 hours at room temperature. After blocking, PVDF membranes were incubated with IKZF1 primary antibody (CST) and IKZF3 primary antibody (Abcam) overnight at 4°, the membranes were washed with TBST buffer (2.4 g Tris, 8.8 g NaCl, 1.5 mL Tween 20, pH adjusted to 7.4, constant volume to 1 L) for 30 minutes, incubated with secondary antibody (Abcam) for 2 hours at room temperature, finally incubated with Clarity Western ECL Substrate (BIO-RAD) for 5 minutes for luminescence development, chemiluminescence imaging system (Clinx, chemiScope 6200 Touch) was used for development and protein mapping photography. The protein map was analyzed by Clinx chemiluminescence analysis software for grayscale values. Using the formula: grayscale correction value=(target protein grayscale value/corresponding internal reference grayscale value)×10^3, the grayscale correction value of each sample was calculated. The degradation rate was calculated by comparing with the grayscale correction value of the control group.

Data set [3] addresses T3, IKZF3 (Homo sapiens, UniProt Q96SW2+Q9UKT9).
T3 construct: endogenous in cells; host or cells: L363 cells
Put plainly: Degradation of IKZF3 in L363 cells by Western blot. It is filed as cell-based. The settings on record: compound 1000 nM, 16 hours. The procedure:
as §1, §2
Background: A western blot detects proteins with antibodies after separation by electrophoresis.

A short description of data set [4]: Pharmacokinetic study in mice. The class given is in vivo, SD mice. The procedure: The following experimental scheme was used to study the pharmacokinetic behavior of the compound of the present invention in mice and evaluate its pharmacokinetic characteristics.
Experimental scheme: 3 healthy SD mice, male, weighing […], were given 100 mg/kg compound by gavage with a volume of 10 mL/kg, prepared with […] (w/v). Before the test, they were fasted for 12 hours and freely drank water. Food was uniformly consumed 4 h after administration.
Three healthy SD mice, male, weighing […], were given 1 mg/kg compound intravenously with a volume of 5 mL/kg, prepared with 5% DMSO/15% solutol %80% PBS (w/v). Before the test, they were fasted for 12 hours and freely drank water. Food was uniformly consumed 4 h after administration.
0.1 mL of venous blood was taken through the submaxillary venous plexus of mice at 0.08 h, 0.25 h, 0.5 h, 1 h, 2 h, 4 h, 8 h, 24 h after gavage administration and 0.08 h, 0.25 h, 0.5 h, 1 h, 2 h, 4 h, 8 h, 24 h after intravenous administration, placed in a heparin test tube, centrifuged at 11000 rpm for 5 min, and plasma was separated, the concentration of compounds in plasma was determined by liquid chromatography-tandem mass spectrometry.

[5] abbreviates: male, SD, mouse, po, gavage administration 100 mg/kg, plasma.

T2 sequence (Q13422 whole entry): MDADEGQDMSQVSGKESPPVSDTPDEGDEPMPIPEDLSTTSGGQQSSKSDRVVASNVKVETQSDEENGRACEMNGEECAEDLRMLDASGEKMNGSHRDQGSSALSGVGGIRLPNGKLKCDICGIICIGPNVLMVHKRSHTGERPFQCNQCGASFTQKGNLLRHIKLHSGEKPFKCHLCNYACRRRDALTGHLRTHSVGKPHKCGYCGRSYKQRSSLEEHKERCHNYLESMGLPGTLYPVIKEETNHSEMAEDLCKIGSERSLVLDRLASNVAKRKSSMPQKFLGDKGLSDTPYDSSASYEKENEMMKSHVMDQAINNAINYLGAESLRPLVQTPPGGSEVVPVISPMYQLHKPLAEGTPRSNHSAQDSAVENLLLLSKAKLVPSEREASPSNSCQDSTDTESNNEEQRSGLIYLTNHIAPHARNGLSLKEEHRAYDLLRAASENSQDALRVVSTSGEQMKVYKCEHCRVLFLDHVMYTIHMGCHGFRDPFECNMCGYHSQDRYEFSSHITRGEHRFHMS
T2 sequence (Q96SW2 whole entry): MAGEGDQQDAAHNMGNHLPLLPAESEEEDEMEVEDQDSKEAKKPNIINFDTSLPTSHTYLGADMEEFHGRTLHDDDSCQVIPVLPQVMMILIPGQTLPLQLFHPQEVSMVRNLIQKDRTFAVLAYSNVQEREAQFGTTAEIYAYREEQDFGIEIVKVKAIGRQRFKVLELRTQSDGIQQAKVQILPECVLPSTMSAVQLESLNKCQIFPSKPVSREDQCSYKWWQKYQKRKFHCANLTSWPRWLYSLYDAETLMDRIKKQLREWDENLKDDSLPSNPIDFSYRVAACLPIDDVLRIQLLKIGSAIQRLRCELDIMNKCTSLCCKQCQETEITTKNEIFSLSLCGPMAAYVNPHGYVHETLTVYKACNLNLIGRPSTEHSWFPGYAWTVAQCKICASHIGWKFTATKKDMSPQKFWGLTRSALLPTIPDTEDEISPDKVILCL
T2 sequence (Q16531 whole entry partner): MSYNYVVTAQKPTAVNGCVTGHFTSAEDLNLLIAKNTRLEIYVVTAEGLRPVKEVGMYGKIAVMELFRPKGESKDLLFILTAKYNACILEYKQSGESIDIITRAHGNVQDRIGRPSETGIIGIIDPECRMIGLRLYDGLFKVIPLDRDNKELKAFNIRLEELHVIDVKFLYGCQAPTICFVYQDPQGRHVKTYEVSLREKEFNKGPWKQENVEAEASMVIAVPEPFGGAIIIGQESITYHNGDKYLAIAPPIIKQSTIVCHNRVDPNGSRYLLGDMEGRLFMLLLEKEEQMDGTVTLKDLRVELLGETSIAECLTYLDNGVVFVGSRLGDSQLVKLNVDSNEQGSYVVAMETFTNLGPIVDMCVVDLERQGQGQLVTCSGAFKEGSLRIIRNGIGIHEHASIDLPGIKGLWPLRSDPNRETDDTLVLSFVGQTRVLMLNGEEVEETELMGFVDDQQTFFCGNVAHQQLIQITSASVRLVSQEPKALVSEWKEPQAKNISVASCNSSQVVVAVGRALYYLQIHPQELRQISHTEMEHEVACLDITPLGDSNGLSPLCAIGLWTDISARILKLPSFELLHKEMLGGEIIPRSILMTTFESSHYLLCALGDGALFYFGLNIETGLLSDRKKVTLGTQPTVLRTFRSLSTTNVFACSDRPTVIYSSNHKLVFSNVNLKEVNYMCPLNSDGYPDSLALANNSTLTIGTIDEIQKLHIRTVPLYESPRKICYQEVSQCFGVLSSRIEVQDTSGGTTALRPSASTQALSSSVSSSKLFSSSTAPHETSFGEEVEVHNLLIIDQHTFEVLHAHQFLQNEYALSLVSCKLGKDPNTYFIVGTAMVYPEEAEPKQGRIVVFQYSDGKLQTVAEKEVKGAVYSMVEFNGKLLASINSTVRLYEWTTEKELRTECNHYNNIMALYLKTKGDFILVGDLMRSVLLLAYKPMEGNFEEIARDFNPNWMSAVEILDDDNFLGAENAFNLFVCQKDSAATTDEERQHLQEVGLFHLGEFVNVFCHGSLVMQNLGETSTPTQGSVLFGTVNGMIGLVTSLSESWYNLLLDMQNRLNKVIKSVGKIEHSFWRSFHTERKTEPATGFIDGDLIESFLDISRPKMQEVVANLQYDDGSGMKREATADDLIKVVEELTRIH
T3 sequence (Q9UKT9 whole entry): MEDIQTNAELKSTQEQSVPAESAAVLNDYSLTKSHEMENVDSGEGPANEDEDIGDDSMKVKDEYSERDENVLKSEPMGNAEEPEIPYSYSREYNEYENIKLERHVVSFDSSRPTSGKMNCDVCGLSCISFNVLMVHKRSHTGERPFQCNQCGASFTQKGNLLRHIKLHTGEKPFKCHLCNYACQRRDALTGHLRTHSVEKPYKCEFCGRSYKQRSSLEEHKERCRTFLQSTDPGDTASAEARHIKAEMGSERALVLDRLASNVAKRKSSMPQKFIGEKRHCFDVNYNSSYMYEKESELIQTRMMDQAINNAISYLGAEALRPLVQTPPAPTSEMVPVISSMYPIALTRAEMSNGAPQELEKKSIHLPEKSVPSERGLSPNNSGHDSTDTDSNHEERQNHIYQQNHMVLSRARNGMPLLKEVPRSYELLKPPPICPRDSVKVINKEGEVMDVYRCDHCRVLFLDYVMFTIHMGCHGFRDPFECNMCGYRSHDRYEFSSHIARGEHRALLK
T3 sequence (Q96SW2 whole entry): as the sequence (Q96SW2 whole entry) above
T3 sequence (Q16531 whole entry partner): as the sequence (Q16531 whole entry partner) above

In data set [1], `CC(C)(O)c1cc2nn(C3CCN(CCCC4CCN(c5ccc6c(c5)C(=O)N(C5CCC(=O)NC5=O)C6=O)CC4)CC3)cc2cc1NC(=O)c1cccc(C(F)(F)F)n1` (stereo not drawn) [Example 6, N-(2-(1-(3-(1-(2-(2,6-dioxopiperidin-3-yl)-1,3-dioxoisoindolin-5-yl)piperidin-4-yl)propyl)piperidin-4-yl)-6-(2-hydroxyprop-2-yl)-2H-indazol-5-yl)-6-(trifluoromethyl) pyridinecarboxamide] displayed an IC50 of 55.7 nM. Besides, the “IKZF1 degradation rate (%)” value in data set [2] came out at 26.7 ± 2.4%. The “IKZF3 degradation rate (%)” value in data set [3] was determined as 8.4 ± 6.0%. In data set [4] (intravenous injection 1 mg/kg), the CL_pred stood at 0.4 L/h/kg and the Vss_pred is 4.6 L/kg. For the same compound, the AUC(0-t) in data set [4] (male, SD, mouse, intravenous injection 1 mg/kg, plasma) is 2150 ng·h/mL. Moreover, the bioavailability in data set [4] (male, SD, mouse, plasma, po, gavage 100 mg/kg vs intravenous 1 mg/kg) is 14.2%. In data set [4] (setting [5]), the AUC(0-t) is 30500 ng·h/mL and the peak level (Cmax) was 1860 ng/mL.
